Values joined by “and” are separate entries in the source; they are usually repeats but may differ in a detail not shown here. Equal entries are not always repeated. Toxic doses and inconclusive results are not listed. How the source made its calls: active means survival T/C of 150% or more; inactive means T/C below 125% in these data.
Test system: CD2F1 mice, L1210 leukemia ip, survival T/C
Test: NCI In Vivo Anticancer Drug Screen. Data for tumor model L1210 Leukemia (intraperitoneal) in CD2F1 (CDF1) mice
Details: higher = longer survival
In short: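 Transplantable tumor in mice; compound-treated vs vehicle-treated groups. Read-out = treated/control ratio of the measured endpoint.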

[1] = endpoint: mean survival time, dose: 100.0 mg/kg/injection, schedule: Q04DX003 (ip), vehicle: saline with Tween-80
[2] = endpoint: mean survival time, dose: 200.0 mg/kg/injection, schedule: Q04DX003 (ip), vehicle: saline with Tween-80
[3] = endpoint: mean survival time, dose: 400.0 mg/kg/injection, schedule: Q04DX003 (ip), vehicle: saline with Tween-80
[4] = endpoint: mean survival time, dose: 100.0 mg/kg/injection, schedule: Q01DX001 (ip), vehicle: saline with Tween-80
[5] = endpoint: mean survival time, dose: 100.0 mg/kg/injection, schedule: Q04DX002 (ip), vehicle: saline with Tween-80
[6] = endpoint: mean survival time, dose: 200.0 mg/kg/injection, schedule: Q01DX001 (ip), vehicle: saline with Tween-80
[7] = endpoint: mean survival time, dose: 200.0 mg/kg/injection, schedule: Q04DX002 (ip), vehicle: saline with Tween-80
[8] = endpoint: mean survival time, dose: 400.0 mg/kg/injection, schedule: Q01DX001 (ip), vehicle: saline with Tween-80
[9] = endpoint: mean survival time, dose: 100.0 mg/kg/injection, schedule: Q04DX002 (ip), vehicle: saline
[10] = endpoint: mean survival time, dose: 200.0 mg/kg/injection, schedule: Q04DX002 (ip), vehicle: saline
[11] = endpoint: mean survival time, dose: 400.0 mg/kg/injection, schedule: Q04DX002 (ip), vehicle: saline
[12] = endpoint: mean survival time, dose: 100.0 mg/kg/injection, schedule: Q01DX009 (ip), vehicle: saline with Tween-80
[13] = endpoint: mean survival time, dose: 200.0 mg/kg/injection, schedule: Q01DX009 (ip), vehicle: saline with Tween-80
[14] = endpoint: mean survival time, dose: 400.0 mg/kg/injection, schedule: Q01DX009 (ip), vehicle: saline with Tween-80

Measured: T/C

O=C1CCCc2ccc(Cl)cc21
inactive: endpoint: mean survival time, dose: 100.0 mg/kg/injection, schedule: Q04DX003 (ip), vehicle: saline 96 % of control | endpoint: mean survival time, dose: 200.0 mg/kg/injection, schedule: Q04DX003 (ip), vehicle: saline 97 % of control | endpoint: mean survival time, dose: 400.0 mg/kg/injection, schedule: Q04DX003 (ip), vehicle: saline 108 % of control

CCCCN=[N+]=[N-]
inactive: endpoint: mean survival time, dose: 25.0 mg/kg/injection, schedule: Q01DX009 (ip), vehicle: water 94 % of control | endpoint: mean survival time, dose: 100.0 mg/kg/injection, schedule: Q01DX009 (ip), vehicle: water 96 % of control | endpoint: mean survival time, dose: 200.0 mg/kg/injection, schedule: Q01DX009 (ip), vehicle: water 91 % of control

CN(C)c1ccn(C2OC(CO)C(O)C2SC(C)(C)C)c(=O)n1 (configuration not stated)
inactive: endpoint: median survival time, dose: 12.5 mg/kg/injection, schedule: Q01DX005 (ip), vehicle: saline 100 % of control | endpoint: median survival time, dose: 25.0 mg/kg/injection, schedule: Q01DX005 (ip), vehicle: saline 99 % of control | endpoint: median survival time, dose: 50.0 mg/kg/injection, schedule: Q01DX005 (ip), vehicle: saline 97 % of control | endpoint: median survival time, dose: 100.0 mg/kg/injection, schedule: Q01DX005 (ip), vehicle: saline 104 % of control | endpoint: median survival time, dose: 200.0 mg/kg/injection, schedule: Q01DX005 (ip), vehicle: saline 96 % of control

Cc1cc(O)c2c(c1O)C(=O)C13C(=C2O)C(=O)C2C(O)C1C1C(O)C3C(=O)C3=C(O)c4c(O)cc(C)c(O)c4C(=O)C321 (configuration not stated)
inactive: endpoint: mean survival time, dose: 6.25 mg/kg/injection, schedule: Q04DX003 (ip), vehicle: saline with Tween-80 102 % of control | endpoint: mean survival time, dose: 12.5 mg/kg/injection, schedule: Q04DX003 (ip), vehicle: saline with Tween-80 107 % of control | endpoint: mean survival time, dose: 25.0 mg/kg/injection, schedule: Q04DX003 (ip), vehicle: saline with Tween-80 93 % of control | endpoint: median survival time, dose: 0.78 mg/kg/injection, schedule: Q01DX009 (ip), vehicle: saline with Tween-80 111 % of control | endpoint: median survival time, dose: 1.56 mg/kg/injection, schedule: Q01DX009 (ip), vehicle: saline with Tween-80 109 % of control | endpoint: median survival time, dose: 3.12 mg/kg/injection, schedule: Q01DX009 (ip), vehicle: saline with Tween-80 97 % of control and 102 % of control

CC(C)(C)OC(=O)Nc1cccc(O)c1
inactive: [1] 100 % of control | [2] 96 % of control | [3] 93 % of control

Cc1c(Cl)c(Cl)c(Cl)c(I)c1Cl
inactive: endpoint: mean survival time, dose: 50.0 mg/kg/injection, schedule: Q04DX002 (ip), vehicle: saline with Tween-80 96 % of control | [4] 97 % of control | [5] 93 % of control | [6] 102 % of control | [7] 93 % of control | [8] 97 % of control

O=C1CCC(=O)CC1
inactive: [9] 111 % of control | [10] 107 % of control | [11] 107 % of control

CCc1cccc(OCC(C)=O)c1
inactive: endpoint: mean survival time, dose: 75.0 mg/kg/injection, schedule: Q01DX001 (ip), vehicle: saline with Tween-80 97 % of control | endpoint: mean survival time, dose: 150.0 mg/kg/injection, schedule: Q01DX001 (ip), vehicle: saline with Tween-80 101 % of control | endpoint: mean survival time, dose: 300.0 mg/kg/injection, schedule: Q01DX001 (ip), vehicle: saline with Tween-80 100 % of control

COC(=O)C1(C)CCCC2(C)C1CCC13OC1C(C(C)C)=CCC23 (configuration not stated)
inactive: [12] 104 % of control | [13] 97 % of control | [14] 101 % of control

COc1cc(N)nc(OC)n1
inactive: [1] 94 % of control | [2] 100 % of control | [3] 87 % of control

COC1C(CO)OC(n2cnc3c(=S)nc(N)[nH]c32)C1O (configuration not stated)
inactive: endpoint: mean survival time, dose: 12.5 mg/kg/injection, schedule: Q01DX009 (ip), vehicle: Klucel (hydroxypropylcellulose) (HPC) 98 % of control and 101 % of control | endpoint: mean survival time, dose: 25.0 mg/kg/injection, schedule: Q01DX009 (ip), vehicle: Klucel (hydroxypropylcellulose) (HPC) 101 % of control and 106 % of control | endpoint: mean survival time, dose: 50.0 mg/kg/injection, schedule: Q01DX009 (ip), vehicle: Klucel (hydroxypropylcellulose) (HPC) 101 % of control and 106 % of control | endpoint: mean survival time, dose: 100.0 mg/kg/injection, schedule: Q01DX009 (ip), vehicle: Klucel (hydroxypropylcellulose) (HPC) 123 % of control | endpoint: mean survival time, dose: 400.0 mg/kg/injection, schedule: Q01DX009 (ip), vehicle: Klucel (hydroxypropylcellulose) (HPC) 100 % of control

N\C([S-])=N/N=C\C(=N/N=C(\N)[S-])C(O)C(O)C(O)CO.[Ni+2] (configuration not stated)
inactive: endpoint: mean survival time, dose: 80.5 mg/kg/injection, schedule: Q01DX009 (ip), vehicle: saline with Tween-80 102 % of control | endpoint: mean survival time, dose: 161.0 mg/kg/injection, schedule: Q01DX009 (ip), vehicle: saline with Tween-80 95 % of control

Cc1ccc(S(=O)(=O)NCl)cc1
inactive: endpoint: mean survival time, dose: 25.0 mg/kg/injection, schedule: Q01DX009 (ip), vehicle: saline 89 % of control | endpoint: mean survival time, dose: 50.0 mg/kg/injection, schedule: Q01DX009 (ip), vehicle: saline 94 % of control

CO[C@H]1C[C@H](O[C@H]2CC[C@]3(C=O)[C@H]4CC[C@]5(C)[C@@H](C6=CC(=O)OC6)CC[C@]5(O)[C@@H]4CC[C@]3(O)C2)O[C@H](C)[C@H]1O[C@@H]1O[C@H](CO)[C@@H](O)[C@H](O)[C@H]1O
inactive: endpoint: mean survival time, dose: 0.25 mg/kg/injection, schedule: Q01DX009 (ip), vehicle: saline 102 % of control | endpoint: mean survival time, dose: 0.5 mg/kg/injection, schedule: Q01DX009 (ip), vehicle: saline 96 % of control | endpoint: mean survival time, dose: 1.0 mg/kg/injection, schedule: Q01DX009 (ip), vehicle: saline 110 % of control

COC(=O)C1CC2C(=O)CCCCCCC2C1O (configuration not stated)
inactive: [4] 93 % of control | [6] 101 % of control | [8] 98 % of control

CN(CCO)c1c(Cl)c(=O)oc2ccc(Cl)cc12
inactive: [12] 97 % of control | [13] 101 % of control | [14] 106 % of control

CCCCCCCCCCCC[Si](CCCCCCCCCCCC)(c1ccccc1)c1ccccc1
inactive: [1] 103 % of control | [2] 93 % of control | [3] 93 % of control

O=C1CN(Cl)C(=O)CN1Cl
inactive: endpoint: mean survival time, dose: 37.5 mg/kg/injection, schedule: Q04DX002 (ip), vehicle: saline with Tween-80 98 % of control | endpoint: mean survival time, dose: 75.0 mg/kg/injection, schedule: Q04DX002 (ip), vehicle: saline with Tween-80 98 % of control | endpoint: mean survival time, dose: 150.0 mg/kg/injection, schedule: Q04DX002 (ip), vehicle: saline with Tween-80 102 % of control

Cc1cccc(C)c1N1C(N)=NC(N)=NC1(C)C
inactive: endpoint: mean survival time, dose: 100.0 mg/kg/injection, schedule: Q01DX001 (ip), vehicle: saline 101 % of control | endpoint: mean survival time, dose: 200.0 mg/kg/injection, schedule: Q01DX001 (ip), vehicle: saline 93 % of control | endpoint: mean survival time, dose: 400.0 mg/kg/injection, schedule: Q01DX001 (ip), vehicle: saline 93 % of control

CCCCCCCCCCS(=O)CC(CO)NC(=O)/C=C/c1c(C)[nH]c(=O)[nH]c1=O (configuration not stated)
inactive: endpoint: mean survival time, dose: 0.37 mg/kg/injection, schedule: Q01DX009 (ip), vehicle: distilled water + Tween-80 102 % of control and 106 % of control | endpoint: mean survival time, dose: 0.75 mg/kg/injection, schedule: Q01DX009 (ip), vehicle: distilled water + Tween-80 110 % of control and 111 % of control | endpoint: mean survival time, dose: 1.5 mg/kg/injection, schedule: Q01DX009 (ip), vehicle: distilled water + Tween-80 113 % of control and 101 % of control | endpoint: mean survival time, dose: 3.0 mg/kg/injection, schedule: Q01DX009 (ip), vehicle: distilled water + Tween-80 114 % of control and 117 % of control | endpoint: mean survival time, dose: 6.0 mg/kg/injection, schedule: Q01DX009 (ip), vehicle: distilled water + Tween-80 117 % of control | endpoint: mean survival time, dose: 12.0 mg/kg/injection, schedule: Q01DX009 (ip), vehicle: distilled water + Tween-80 89 % of control and 96 % of control

Cc1cc(C(O)c2ccccn2)c2cc(Cl)cc(Cl)c2n1 (configuration not stated)
inactive: [5] 97 % of control | [7] 102 % of control | endpoint: mean survival time, dose: 400.0 mg/kg/injection, schedule: Q04DX002 (ip), vehicle: saline with Tween-80 97 % of control

C1=NOC2c3ccc4ccccc4c3CCC12 (configuration not stated)
inactive: endpoint: mean survival time, dose: 100.0 mg/kg/injection, schedule: Q04DX003 (ip), vehicle: Klucel (hydroxypropylcellulose) (HPC) 100 % of control | endpoint: mean survival time, dose: 200.0 mg/kg/injection, schedule: Q04DX003 (ip), vehicle: Klucel (hydroxypropylcellulose) (HPC) 101 % of control | endpoint: mean survival time, dose: 400.0 mg/kg/injection, schedule: Q04DX003 (ip), vehicle: Klucel (hydroxypropylcellulose) (HPC) 107 % of control

CCOC(=O)N1Cc2cc3ccccc3nc2C1
inactive: endpoint: mean survival time, dose: 75.0 mg/kg/injection, schedule: Q01DX009 (ip), vehicle: saline with Tween-80 100 % of control | endpoint: mean survival time, dose: 150.0 mg/kg/injection, schedule: Q01DX009 (ip), vehicle: saline with Tween-80 101 % of control

CCCCCCCCCCCC(=O)N(CCCC)CCCC
inactive: [9] 103 % of control | [10] 103 % of control | [11] 106 % of control

COc1ccc(C(Br)C(C)Br)cc1 (configuration not stated)
inactive: endpoint: mean survival time, dose: 50.0 mg/kg/injection, schedule: Q01DX009 (ip), vehicle: saline with Tween-80 97 % of control | [12] 94 % of control | [1] 98 % of control | [13] 97 % of control | [2] 98 % of control
